Starred links: 1 amine or outer side, 2 acyl side, 3 side chain; linkers in the order of their positions; H or OH if unused. Positions of bridges follow the written chain, without caps; N, C: chain ends. Non-standard residues stand in square brackets, D forms with d. Residues, ends and D or L forms follow the SMILES beside them. Groups on a side chain read outwards from the residue. *: point of attachment. Phe(3-OCH2COOH) = N[C@@H](Cc1cccc(OCC(=O)O)c1)C(=O)O; Phe(3-Ph) = N[C@@H](Cc1cccc(-c2ccccc2)c1)C(=O)O; Phe(4-COOH) = N[C@@H](Cc1ccc(C(=O)O)cc1)C(=O)O; Piperazinyl(4-CH2COOH) = O=C(O)CN1CCN(*)CC1; 1Nal = N[C@@H](Cc1cccc2ccccc12)C(=O)O; Gly(decyl) = CCCCCCCCCC[C@H](N)C(=O)O; AEF = NCCOc1ccc(C[C@H](N)C(=O)O)cc1; X1 = CCCCCCC[C@H](N[*:1])C(=O)[*:2]; NMeF = CN[C@@H](Cc1ccccc1)C(=O)O; NMeE = CN[C@@H](CCC(=O)O)C(=O)O; Cha = N[C@@H](CC1CCCCC1)C(=O)O; NMeA = CN[C@@H](C)C(=O)O; CO = O=C([*:1])[*:2]; Sar = CNCC(=O)O
Experiments:
Myostatin = molecular target: T1, Myostatin (Homo sapiens, UniProt O14793); assay: HepG2 reporter gene assay, Evaluation Procedure (2): 2-concentrations assay, myostatin inhibition; assay type: cell-based; conditions: Myostatin 10 ng/mL, HepG2; for inhibition at 0.03 µM: peptide 30nM, read-out: Myostatin Inhibition 30nM; for inhibition at 0.1 µM: peptide 100nM, read-out: Myostatin Inhibition 100nM
T1 construct: active myostatin (also called mature myostatin) is a homodimer consisting of two C-terminal growth factor domains; purchased R&D systems 788-G8/CF
T1 sequence (O14793 267-375): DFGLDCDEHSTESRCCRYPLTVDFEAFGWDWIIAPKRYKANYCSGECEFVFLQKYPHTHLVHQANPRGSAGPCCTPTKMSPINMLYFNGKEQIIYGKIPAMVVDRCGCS
Procedure, shortened: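 Myostatin inhibition was measured in a luciferase reporter assay using HepG2 cells transfected with a pGL3 vector containing 12 CAGA repeats upstream of luciferase. After 20 to 24 hours with 10 ng/mL myostatin, cells received One-Glo:PBS (1:1) at 100 µL/well, were shaken for 5 min, and 20 µL/well was moved to 384-well plates and read on an Envision 2104.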

GDF-11 = molecular target: T2, GDF-11 (Homo sapiens, UniProt O95390); assay: HepG2 reporter gene assay, Evaluation Procedure (2): 2-concentrations assay, GDF-11 inhibition; assay type: cell-based; conditions: GDF-11 10 ng/mL; for inhibition at 0.03 µM: HepG2, peptide 30nM, read-out: GDF11 Inhibition 30nM; for inhibition at 0.1 µM: HepG2, peptide 100nM, read-out: GDF11 Inhibition 100nM
T2 construct: purchased R&D systems 1958-GD-G8/CF
T2 sequence (O95390 299-407): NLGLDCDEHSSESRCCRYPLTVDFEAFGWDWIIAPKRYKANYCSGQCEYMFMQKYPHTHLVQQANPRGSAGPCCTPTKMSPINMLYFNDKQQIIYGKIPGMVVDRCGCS
Procedure, shortened: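 HepG2 cells carrying the transfected pGL3(CAGA)12-luc reporter, a pGL3 vector with luciferase placed downstream of 12 CAGA repeats, were stimulated with GDF-11 at a final 10 ng/mL together with test peptide. Blank wells received no GDF-11 and no peptide. Plates were incubated 20 to 24 hours at 37°C with 5% CO2. Luminescence from One-Glo substrate was read to calculate percent inhibition.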

SMILES	inhibition at 0.03 µM (Myostatin) [%]	inhibition at 0.1 µM (Myostatin) [%]	inhibition at 0.03 µM (GDF-11) [%]	inhibition at 0.1 µM (GDF-11) [%]
CCCCCCCCCC[C@@H]1NC(=O)[C@H](Cc2ccccc2)N(C)C(=O)[C@H](CCCNC(=N)N)NC(=O)[C@H](Cc2ccc(C(=O)O)cc2)NC(=O)[C@H](Cc2cccc(OCC(=O)O)c2)NC(=O)CN(C)C(=O)[C@H]([C@@H](C)CC)NC(=O)[C@H](Cc2ccccc2)N(C)C(=O)[C@H](Cc2ccc(O)cc2)NC(=O)[C@H](Cc2c[nH]c3ccccc23)NC(=O)[C@H](C)NC(=O)[C@H](CCCCNC(=O)N2CCN(CC(=O)O)CC2)NC(=O)CSC[C@H](C(=O)N2CCN(CC(=O)O)CC2)NC(=O)[C@H](Cc2ccccc2)N(C)C(=O)[C@H](C)N(C)C1=O [Myostatin_99_v263] ({CH2CO}-K([CO-Piperazinyl(4-CH2COOH)])AWY[NMeF]I[Sar][Phe(3-OCH2COOH)][Phe(4-COOH)]R[NMeF][Gly(decyl)][NMeA][NMeF][dC]-{Piperazinyl(4-CH2COOH)}; thioether N-15)	100	100	8	56
CCCCCCCCCC[C@@H]1NC(=O)[C@H](Cc2ccccc2)N(C)C(=O)[C@H](CCCNC(=N)N)NC(=O)[C@H](Cc2ccc(C(=O)O)cc2)NC(=O)[C@H](Cc2cccc(OCC(=O)O)c2)NC(=O)CN(C)C(=O)[C@H]([C@@H](C)CC)NC(=O)[C@H](Cc2ccccc2)N(C)C(=O)[C@H](Cc2ccc(O)cc2)NC(=O)[C@H](Cc2c[nH]c3ccccc23)NC(=O)[C@@H](CCCCNC(=O)N2CCN(CC(=O)O)CC2)NC(=O)[C@H](C)NC(=O)CSC[C@H](C(=O)N2CCN(CC(=O)O)CC2)NC(=O)[C@H](Cc2ccccc2)N(C)C(=O)[C@H](C)N(C)C1=O [Myostatin_99_v264] ({CH2CO}-A[dK]([CO-Piperazinyl(4-CH2COOH)])WY[NMeF]I[Sar][Phe(3-OCH2COOH)][Phe(4-COOH)]R[NMeF][Gly(decyl)][NMeA][NMeF][dC]-{Piperazinyl(4-CH2COOH)}; thioether N-15)	100	100	24	72
CCCCCCCCCC[C@@H]1NC(=O)[C@H](CC2CCCCC2)NC(=O)[C@H](CCCNC(=N)N)NC(=O)[C@H](Cc2ccc(C(=O)O)cc2)NC(=O)[C@H](CCCCNC(=O)N2CCN(CC(=O)O)CC2)NC(=O)CN(C)C(=O)[C@H]([C@@H](C)CC)NC(=O)[C@H](Cc2ccccc2)N(C)C(=O)[C@H](Cc2ccc(O)cc2)NC(=O)[C@H](Cc2c[nH]c3ccccc23)NC(=O)[C@H](C)NC(=O)[C@H](C)NC(=O)CSC[C@H](C(=O)N2CCN(CC(=O)O)CC2)NC(=O)[C@H](Cc2ccccc2)N(C)C(=O)[C@H](CCC(=O)O)N(C)C1=O [Myostatin_99_v269] ({CH2CO}-AAWY[NMeF]I[Sar]K([CO-Piperazinyl(4-CH2COOH)])[Phe(4-COOH)]R[Cha][Gly(decyl)][NMeE][NMeF][dC]-{Piperazinyl(4-CH2COOH)}; thioether N-15)	100	100	3	59
CCCCCCC[C@@H]1NC(=O)[C@H](Cc2ccccc2)N(C)C(=O)[C@H](CCCNC(=N)N)NC(=O)[C@H](Cc2ccc(C(=O)O)cc2)NC(=O)[C@H](Cc2cccc(OCC(=O)O)c2)NC(=O)CN(C)C(=O)[C@H]([C@@H](C)CC)NC(=O)[C@H](Cc2ccccc2)N(C)C(=O)[C@H](Cc2cccc(-c3ccccc3)c2)NC(=O)[C@H](Cc2c[nH]c3ccccc23)NC(=O)[C@H](C)NC(=O)[C@H](C)NC(=O)CSC[C@H](C(=O)N2CCN(CC(=O)O)CC2)NC(=O)[C@H](Cc2ccccc2)N(C)C(=O)[C@H](C)N(C)C1=O [Myostatin_99_v301] ({CH2CO}-AAW[Phe(3-Ph)][NMeF]I[Sar][Phe(3-OCH2COOH)][Phe(4-COOH)]R[NMeF][X1][NMeA][NMeF][dC]-{Piperazinyl(4-CH2COOH)}; thioether N-15)	93	99	0	0

Further lines, results first:

inhibition at 0.03 µM (Myostatin) [%]	inhibition at 0.1 µM (Myostatin) [%]	inhibition at 0.03 µM (GDF-11) [%]	inhibition at 0.1 µM (GDF-11) [%]	SMILES
100	100	37	75	CCCCCCCCCC[C@@H]1NC(=O)[C@H](CC2CCCCC2)NC(=O)[C@H](CCCNC(=N)N)NC(=O)[C@H](Cc2ccc(C(=O)O)cc2)NC(=O)[C@H](Cc2cccc(OCC(=O)O)c2)NC(=O)CN(C)C(=O)[C@H]([C@@H](C)CC)NC(=O)[C@H](Cc2ccccc2)N(C)C(=O)[C@H](Cc2ccc(O)cc2)NC(=O)[C@H](Cc2c[nH]c3ccccc23)NC(=O)[C@@H](CCCCNC(=O)N2CCN(CC(=O)O)CC2)NC(=O)[C@H](C)NC(=O)CSC[C@H](C(=O)N2CCN(CC(=O)O)CC2)NC(=O)[C@H](Cc2ccccc2)N(C)C(=O)[C@H](C)N(C)C1=O [Myostatin_99_v260] ({CH2CO}-A[dK]([CO-Piperazinyl(4-CH2COOH)])WY[NMeF]I[Sar][Phe(3-OCH2COOH)][Phe(4-COOH)]R[Cha][Gly(decyl)][NMeA][NMeF][dC]-{Piperazinyl(4-CH2COOH)}; thioether N-15)
100	100	24	64	CCCCCCCCCC[C@@H]1NC(=O)[C@H](CC2CCCCC2)NC(=O)[C@H](CCCNC(=N)N)NC(=O)[C@H](Cc2ccc(C(=O)O)cc2)NC(=O)[C@H](CCCCNC(=O)N2CCN(CC(=O)O)CC2)NC(=O)CN(C)C(=O)[C@H]([C@@H](C)CC)NC(=O)[C@H](Cc2ccccc2)N(C)C(=O)[C@H](Cc2ccc(O)cc2)NC(=O)[C@H](Cc2c[nH]c3ccccc23)NC(=O)[C@H](C)NC(=O)[C@H](CCCCNC(=O)N2CCN(CC(=O)O)CC2)NC(=O)CSC[C@H](C(=O)N2CCN(CC(=O)O)CC2)NC(=O)[C@H](Cc2ccccc2)N(C)C(=O)[C@H](C)N(C)C1=O [Myostatin_99_v267] ({CH2CO}-K([CO-Piperazinyl(4-CH2COOH)])AWY[NMeF]I[Sar]K([CO-Piperazinyl(4-CH2COOH)])[Phe(4-COOH)]R[Cha][Gly(decyl)][NMeA][NMeF][dC]-{Piperazinyl(4-CH2COOH)}; thioether N-15)
100	100	65	92	CCCCCCCCCC[C@@H]1NC(=O)[C@H](CC2CCCCC2)NC(=O)[C@H](CCCNC(=N)N)NC(=O)[C@H](Cc2ccc(C(=O)O)cc2)NC(=O)[C@H](CCCCNC(=O)N2CCN(CC(=O)O)CC2)NC(=O)CN(C)C(=O)[C@H]([C@@H](C)CC)NC(=O)[C@H](Cc2ccccc2)N(C)C(=O)[C@H](Cc2ccc(O)cc2)NC(=O)[C@H](Cc2c[nH]c3ccccc23)NC(=O)[C@@H](CCCCNC(=O)N2CCN(CC(=O)O)CC2)NC(=O)[C@H](C)NC(=O)CSC[C@H](C(=O)N2CCN(CC(=O)O)CC2)NC(=O)[C@H](Cc2ccccc2)N(C)C(=O)[C@H](C)N(C)C1=O [Myostatin_99_v268] ({CH2CO}-A[dK]([CO-Piperazinyl(4-CH2COOH)])WY[NMeF]I[Sar]K([CO-Piperazinyl(4-CH2COOH)])[Phe(4-COOH)]R[Cha][Gly(decyl)][NMeA][NMeF][dC]-{Piperazinyl(4-CH2COOH)}; thioether N-15)
93	99	0	0	CCCCCCC[C@@H]1NC(=O)[C@H](Cc2ccccc2)N(C)C(=O)[C@H](CCCNC(=N)N)NC(=O)[C@H](Cc2ccc(C(=O)O)cc2)NC(=O)[C@H](Cc2cccc(OCC(=O)O)c2)NC(=O)CN(C)C(=O)[C@H]([C@@H](C)CC)NC(=O)[C@H](Cc2ccccc2)N(C)C(=O)[C@H](Cc2ccc(OCCN)cc2)NC(=O)[C@H](Cc2c[nH]c3ccccc23)NC(=O)[C@H](C)NC(=O)[C@H](C)NC(=O)CSC[C@H](C(=O)N2CCN(CC(=O)O)CC2)NC(=O)[C@H](Cc2ccccc2)N(C)C(=O)[C@H](C)N(C)C1=O [Myostatin_99_v299] ({CH2CO}-AAW[AEF][NMeF]I[Sar][Phe(3-OCH2COOH)][Phe(4-COOH)]R[NMeF][X1][NMeA][NMeF][dC]-{Piperazinyl(4-CH2COOH)}; thioether N-15)
81	97	0	0	CCCCCCC[C@@H]1NC(=O)[C@H](Cc2ccccc2)N(C)C(=O)[C@H](CCCNC(=N)N)NC(=O)[C@H](Cc2ccc(C(=O)O)cc2)NC(=O)[C@H](Cc2cccc(OCC(=O)O)c2)NC(=O)CN(C)C(=O)[C@H]([C@@H](C)CC)NC(=O)[C@H](Cc2ccccc2)N(C)C(=O)[C@H](Cc2cccc3ccccc23)NC(=O)[C@H](Cc2c[nH]c3ccccc23)NC(=O)[C@H](C)NC(=O)[C@H](C)NC(=O)CSC[C@H](C(=O)N2CCN(CC(=O)O)CC2)NC(=O)[C@H](Cc2ccccc2)N(C)C(=O)[C@H](C)N(C)C1=O [Myostatin_99_v300] ({CH2CO}-AAW[1Nal][NMeF]I[Sar][Phe(3-OCH2COOH)][Phe(4-COOH)]R[NMeF][X1][NMeA][NMeF][dC]-{Piperazinyl(4-CH2COOH)}; thioether N-15)
